Experimental data reported in patent US20090269354A1, “QUINAZOLINE DERIVATIVES AND METHODS OF TREATMENT” (Concert Pharmaceuticals, Inc., priority 2008, published 2009).

Legend:
[1] = Compound stability in human liver microsomes (Example 16, design as Example 15); type: in vitro ADME; conditions: 1 μM test compound; for half-life at 1 μM: pooled human liver microsomes, pH 7.4, human liver microsomes 0.5 mg/mL; for % Difference with respect to non-deuterated analog: t1/2 vs 105-H or 106-H; for % Difference with respect to non-deuterated analog / % Difference with respect to non-deuterated Erlotinib: 0.5 mg/mL HLM; for % Difference with respect to non-deuterated Erlotinib: t1/2 vs erlotinib
Procedure: The metabolic stability of compounds of the invention was tested using pooled liver microsomal incubations. Samples of the test compounds, exposed to pooled human liver microsomes, were analyzed using HPLC-MS (or MS/MS) detection. For determining metabolic stability, multiple reaction monitoring (MRM) was used to measure the disappearance of the test compounds.
Experimental Procedures. Human liver microsomes (“HLM”; 20 mg/mL) were obtained from Xenotech, LLC (Lenexa, Kans.). β-nicotinamide adenine dinucleotide phosphate, reduced form (NADPH), magnesium chloride (MgCl2), and dimethyl sulfoxide (DMSO) were purchased from Sigma-Aldrich.
Stock solutions of test compounds (7.5 mM) were prepared in DMSO. The 7.5 mM stock solutions were diluted to 50 μM in acetonitrile (ACN). The 20 mg/mL human liver microsomes were diluted to 0.625 mg/mL in 0.1 M potassium phosphate buffer, pH 7.4, containing 3 mM MgCl2. The diluted microsomes (375 μL) were added to wells of a 96-well deep-well polypropylene plate in triplicate. A 10 μL aliquot of the 50 μM test compound solution was added to the microsomes and the mixture was pre-warmed for 10 minutes. Reactions were initiated by addition of 125 μL of pre-warmed NADPH solution (8 mM NADPH in 0.1M potassium phosphate buffer, pH 7.4, containing 3 mM MgCl2). The final reaction volume was 0.5 mL and contained 0.5 mg/mL human liver microsomes, 1 μM test compound, and 2 mM NADPH in 0.1 M potassium phosphate buffer, pH 7.4, and 3 mM MgCl2. The reaction mixtures were incubated at 37° C., and 50 μL aliquots were removed at 0, 5, 10, 20, and 30 minutes and added to shallow-well 96-well plates which contained 50 μL of ice-cold ACN with internal standard to stop the reactions. The plates were stored at 4° C. for 20 minutes after which 100 μL of water was added to the wells of the plate before centrifugation to pellet precipitated proteins. Supernatants were transferred to another 96-well plate and analyzed for amounts of parent remaining by LC-MS/MS using an Applied Bio-systems API 4000 mass spectrometer. 7-ethoxycoumarin was used as a positive control.
The in vitro t1/2 s for test compounds were calculated from the slopes of the linear regression of % parent remaining (ln) vs incubation time relationship.
in vitro t1/2=0.693/k, where k=−[slope of linear regression of % parent remaining(ln) vs incubation time]. Data analysis was performed using Microsoft Excel Software.
Evaluation of Compound Stability in Human Liver Microsomes.

[2] = Compound stability in human liver microsomes (Example 15); type: in vitro ADME; conditions: 1 μM test compound; for half-life at 1 μM: pH 7.4, pooled human liver microsomes 0.5 mg/mL, 2 mM NADPH, 37° C., 0-30 min; for % Difference (t1/2 compared to erlotinib): [(deuterated species) − (nondeuterated species)](100)/(nondeuterated species), reference erlotinib, 0.5 mg/mL HLM
Procedure: Evaluation of Compound Stability in Human Liver Microsomes. […] The metabolic stability of compounds of the invention was tested using pooled liver microsomal incubations. Samples of the test compounds, exposed to pooled human liver microsomes, were analyzed using HPLC-MS (or MS/MS) detection. For determining metabolic stability, multiple reaction monitoring (MRM) was used to measure the disappearance of the test compounds. Experimental Procedures. Human liver microsomes (“HLM”; 20 mg/mL) were obtained from Xenotech, LLC (Lenexa, Kans.). β-nicotinamide adenine dinucleotide phosphate, reduced form (NADPH), magnesium chloride (MgCl2), and dimethyl sulfoxide (DMSO) were purchased from Sigma-Aldrich. Stock solutions of test compounds (7.5 mM) were prepared in DMSO. The 7.5 mM stock solutions were diluted to 50 μM in acetonitrile (ACN). The 20 mg/mL human liver microsomes were diluted to 0.625 mg/mL in 0.1 M potassium phosphate buffer, pH 7.4, containing 3 mM MgCl2. The diluted microsomes (375 μL) were added to wells of a 96-well deep-well polypropylene plate in triplicate. A 10 μL aliquot of the 50 μM test compound solution was added to the microsomes and the mixture was pre-warmed for 10 minutes. Reactions were initiated by addition of 125 μL of pre-warmed NADPH solution (8 mM NADPH in 0.1M potassium phosphate buffer, pH 7.4, containing 3 mM MgCl2). The final reaction volume was 0.5 mL and contained 0.5 mg/mL human liver microsomes, 1 μM test compound, and 2 mM NADPH in 0.1 M potassium phosphate buffer, pH 7.4, and 3 mM MgCl2. The reaction mixtures were incubated at 37° C., and 50 μL aliquots were removed at 0, 5, 10, 20, and 30 minutes and added to shallow-well 96-well plates which contained 50 μL of ice-cold ACN with internal standard to stop the reactions. The plates were stored at 4° C. for 20 minutes after which 100 μL of water was added to the wells of the plate before centrifugation to pellet precipitated proteins. Supernatants were transferred to another 96-well plate and analyzed for amounts of parent remaining by LC-MS/MS using an Applied Bio-systems API 4000 mass spectrometer. 7-ethoxycoumarin was used as a positive control. The in vitro t1/2 s for test compounds were calculated from the slopes of the linear regression of % parent remaining (ln) vs incubation time relationship. […] Data analysis was performed using Microsoft Excel Software.

| Structure (SMILES) | half-life at 1 μM [1] [h] | half-life at 1 μM [2] [h] | % Difference (t1/2 compared to erlotinib) [2] [%] | % Difference with respect to non-deuterated analog [1] [%] | % Difference with respect to non-deuterated Erlotinib [1] [%] |
| --- | --- | --- | --- | --- | --- |
| C#Cc1cccc(Nc2ncnc3cc(OCCOC)c(OCCOC)cc23)c1 [Erlotinib, [6,7-Bis-(2-methoxy-ethoxy)-quinazolin-4-yl]-(3-ethynyl-phenyl)-amine, reference compound] | 0.997 | 0.963 | – | – | – |
| [2H]C([2H])([2H])OC([2H])([2H])COc1cc2ncnc(Nc3ccc(F)c(C#C)c3)c2cc1OCC([2H])([2H])OC([2H])([2H])[2H] [Compound 135, N-(3-Ethynyl-4-fluorophenyl)-6,7-bis(2-(methoxy-d3)-2,2-d2-ethoxy)quinazolin-4-amine] | – | 0.785 | −19 | – | – |
| [2H]C([2H])([2H])OC([2H])([2H])C([2H])([2H])Oc1cc2ncnc(Nc3ccc(F)c(C#C)c3)c2cc1OC([2H])([2H])C([2H])([2H])OC([2H])([2H])[2H] [Compound 121, N-(3-Ethynyl-4-fluorophenyl)-6,7-bis(2-(methoxy-d3)ethoxy-d4)quinazolin-4-amine] | – | 0.847 | −12 | – | – |
| [2H]C([2H])([2H])OC([2H])([2H])C([2H])([2H])Oc1cc2ncnc(Nc3cccc(C#C)c3)c2cc1OC([2H])([2H])C([2H])([2H])OC([2H])([2H])[2H] [Compound 120, N-(3-Ethynylphenyl)-6,7-bis(2-(methoxy-d3)ethoxy-d4)quinazolin-4-amine] | – | 1.14 | – | – | – |
| [2H]C([2H])([2H])OC([2H])([2H])COc1cc2ncnc(Nc3ccc(O)c(C#C)c3)c2cc1OCC([2H])([2H])OC([2H])([2H])[2H] [Compound 138, 4-(6,7-Bis(2-(methoxy-d3)-2,2-d2-ethoxy)quinazolin-4-ylamino)-2-ethynylphenol] | – | 1.48 | – | – | – |
| [2H]C([2H])([2H])OC([2H])([2H])COc1cc2ncnc(Nc3cccc(Cl)c3)c2cc1OCC([2H])([2H])OC([2H])([2H])[2H] [Compound 106, N-(3-Chlorophenyl)-6,7-bis(2-(methoxy-d3)-2,2-d2-ethoxy)quinazolin-4-amine] | 1.54 | – | – | 22 | 55 |
| [2H]C([2H])([2H])OC([2H])([2H])COc1cc2ncnc(Nc3cccc(Br)c3)c2cc1OCC([2H])([2H])OC([2H])([2H])[2H] [Compound 105, N-(3-Bromophenyl)-6,7-bis(2-(methoxy-d3)-2,2-d2-ethoxy)quinazolin-4-amine] | 1.18 | – | – | 35 | 19 |
